This is an account of results in patent publication US10934310B2, “Inhibitors of Bruton's tyrosine kinase and method of their use” (JANSSEN PHARMACEUTICA NV, priority 2015, dated 2021).

The target of this assay is unphosphorylated-BTK kinase domain (UP-BTK), GST-tagged human BTK (389-659aa) (Homo sapiens (Human), UniProt Q06187). Nature of the assay: BTK Kinase Lanthascreen Binding Assay. As to conditions: for BTK_I_binding pIC50: compound, 50 nM Tracer 236, 2 nM anti-GST antibody, 60 minutes, pIC50 = negative log of the IC50 in molar; for IC50: read-out: BTK_I_binding pIC50 (converted). The protocol: BTK Kinase Lanthascreen Binding Assay:
A BTK kinase lanthascreen binding assay monitors compound binding to unphosphorylated-BTK kinase domain (UP-BTK), by competing with a fluorescent labeled tracer. […] Data were analyzed using Xlfit™ version 5.3 from ID Business Solutions (Guildford), Microsoft Excel add-in. pIC50 refers to the negative log of the IC50 in molar.

unphosphorylated-BTK kinase domain (UP-BTK), GST-tagged human BTK (389-659aa), sequence (Q06187 389-659): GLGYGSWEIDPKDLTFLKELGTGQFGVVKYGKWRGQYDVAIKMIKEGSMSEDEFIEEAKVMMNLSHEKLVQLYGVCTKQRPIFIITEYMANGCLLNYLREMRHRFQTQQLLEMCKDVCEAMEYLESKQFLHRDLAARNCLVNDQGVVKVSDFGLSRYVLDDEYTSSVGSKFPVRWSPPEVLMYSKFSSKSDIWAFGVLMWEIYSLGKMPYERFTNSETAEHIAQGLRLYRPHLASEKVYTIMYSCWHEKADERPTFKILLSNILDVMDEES

For the compound `C=CC(=O)N[C@H]1CCC[C@H]1NC(=O)c1sc2nccc3c2c1NC(=O)N3c1ccc(OC2CCOCC2)cc1` [Example 234, N-((1R,2S)-2-Acrylamidocyclopentyl)-4-oxo-5-(4-((tetrahydro-2H-pyran-4-yl)oxy)phenyl)-4,5-dihydro-3H-1-thia-3,5,8-triazaacenaphthylene-2-carboxamide], the “BTK_I_binding pIC50” value is listed as 6.76. For the compound `Cc1cc(Oc2ccccc2)ccc1N1C(=O)Nc2c(C(=O)N[C@@H]3CC[C@@H](NC(=O)CN)C3)sc3nccc1c23` [Example 235, N-((1R,3R)-3-(2-Aminoacetamido)cyclopentyl)-5-(2-methyl-4-phenoxyphenyl)-4-oxo-4,5-dihydro-3H-1-thia-3,5,8-triazaacenaphthylene-2-carboxamide], the “BTK_I_binding pIC50” value came to 7.44. On to `Cc1cc(Oc2ccccc2)ccc1N1C(=O)Nc2c(C(=O)N[C@@H]3CC[C@@H](N)C3)sc3nccc1c23` [Example 236, N-((1R,3R)-3-Aminocyclopentyl)-5-(2-methyl-4-phenoxyphenyl)-4-oxo-4,5-dihydro-3H-1-thia-3,5,8-triazaacenaphthylene-2-carboxamide], for which the “BTK_I_binding pIC50” value was determined as 7.00. The same measure, in the same setting: the same measure for `C=CC(=O)N[C@@H]1CCCC[C@H]1NC(=O)c1sc2nccc3c2c1NC(=O)N3c1ccc(Oc2ccccc2)nc1` [Example 239, N-((1R,2R)-2-Acrylamidocyclohexyl)-4-oxo-5-(6-phenoxypyridin-3-yl)-4,5-dihydro-3H-1-thia-3,5,8-triazaacenaphthylene-2-carboxamide]: 6.47; for `Cc1cc(Oc2ccccc2)ccc1N1C(=O)Nc2c(C(=O)N[C@H]3CC[C@H](NC(=O)CN(C)C)C3)sc3nccc1c23` [Example 245, N-((1S,3S)-3-(2-(Dimethylamino)acetamido)cyclopentyl)-5-(2-methyl-4-phenoxyphenyl)-4-oxo-4,5-dihydro-3H-1-thia-3,5,8-triazaacenaphthylene-2-carboxamide]: 6.73.

Turning to `CNCC(=O)N[C@H]1CC[C@H](NC(=O)c2sc3nccc4c3c2NC(=O)N4c2ccc(Oc3ccccc3)cc2C)C1` [Example 246, 5-(2-Methyl-4-phenoxyphenyl)-N-((1S,3S)-3-(2-(methylamino)acetamido)cyclopentyl)-4-oxo-4,5-dihydro-3H-1-thia-3,5,8-triazaacenaphthylene-2-carboxamide], the “BTK_I_binding pIC50” value was determined as 6.84.

In the case of `CN(C)C/C=C/C(=O)N[C@@H]1CC[C@H](NC(=O)c2sc3nccc4c3c2NC(=O)N4c2ccc(Oc3ccccc3)c(Cl)c2)C1` [Example 248, 5-(3-Chloro-4-phenoxyphenyl)-N-((1S,3R)-3-((E)-4-(dimethylamino)but-2-enamido)cyclopentyl)-4-oxo-4,5-dihydro-3H-1-thia-3,5,8-triazaacenaphthylene-2-carboxamide], the “BTK_I_binding pIC50” value was determined as 6.98.

As for `N[C@H]1CCC[C@H]1NC(=O)c1sc2nccc3c2c1NC(=O)N3c1cccc(-c2ccccc2)c1` [Example 249, 5-([1,1′-Biphenyl]-3-yl)-N-((1R,2S)-2-aminocyclopentyl)-4-oxo-4,5-dihydro-3H-1-thia-3,5,8-triazaacenaphthylene-2-carboxamide], the “BTK_I_binding pIC50” value is 6.90.

For the compound `N[C@H]1CCCC[C@H]1NC(=O)c1sc2nccc3c2c1NC(=O)N3c1ccc(Oc2ccccc2)nc1` [Example 257, N-((1R,2S)-2-Aminocyclohexyl)-4-oxo-5-(6-phenoxypyridin-3-yl)-4,5-dihydro-3H-1-thia-3,5,8-triazaacenaphthylene-2-carboxamide], the “BTK_I_binding pIC50” value is 6.47. Turning to `CC(=O)N[C@@H]1CCC[C@@H]1NC(=O)c1sc2nccc3c2c1NC(=O)N3c1ccnc(-c2ccccc2)c1` [Example 258, N-((1S,2R)-2-Acetamidocyclopentyl)-4-oxo-5-(2-phenylpyridin-4-yl)-4,5-dihydro-3H-1-thia-3,5,8-triazaacenaphthylene-2-carboxamide], the IC50 was more than 1000 nM. Regarding `N[C@H]1CCCC[C@H]1NC(=O)c1sc2nccc3c2c1NC(=O)N3c1ccnc(-c2ccccc2)c1` [Example 260, N-((1R,2S)-2-Aminocyclohexyl)-4-oxo-5-(2-phenylpyridin-4-yl)-4,5-dihydro-3H-1-thia-3,5,8-triazaacenaphthylene-2-carboxamide], the “BTK_I_binding pIC50” value amounted to 6.45. Same read-out and setting: then `N[C@H]1CCC[C@H]1NC(=O)c1sc2nccc3c2c1NC(=O)N3c1ccnc(-c2ccccc2)c1` [Example 263, N-((1R,2S)-2-Aminocyclopentyl)-4-oxo-5-(2-phenylpyridin-4-yl)-4,5-dihydro-3H-1-thia-3,5,8-triazaacenaphthylene-2-carboxamide], with 6.38; and `N[C@H]1CCC[C@H]1NC(=O)c1sc2nccc3c2c1NC(=O)N3c1ccc(Oc2ccccc2)nc1` [Example 265, N-((1R,2S)-2-Aminocyclopentyl)-4-oxo-5-(6-phenoxypyridin-3-yl)-4,5-dihydro-3H-1-thia-3,5,8-triazaacenaphthylene-2-carboxamide], with 6.24; and `N[C@H]1CCC[C@H]1NC(=O)c1sc2nccc3c2c1NC(=O)N3c1cc(-c2ccccc2)ccn1` [Example 267, N-((1R,2S)-2-Aminocyclopentyl)-4-oxo-5-(4-phenylpyridin-2-yl)-4,5-dihydro-3H-1-thia-3,5,8-triazaacenaphthylene-2-carboxamide], with 6.21. Turning to `O=C(N[C@@H]1CCC[C@H]1O)c1sc2nccc3c2c1NC(=O)N3c1ccnc(-c2ccccc2)c1` [Example 268, N-((1R,2R)-2-Hydroxycyclopentyl)-4-oxo-5-(2-phenylpyridin-4-yl)-4,5-dihydro-3H-1-thia-3,5,8-triazaacenaphthylene-2-carboxamide], the IC50 is 631 nM. In the case of `N[C@@H]1CCC[C@H]1NC(=O)c1sc2nccc3c2c1NC(=O)N3c1ccc(Oc2ccccc2)nc1` [Example 269, N-((1R,2R)-2-Aminocyclopentyl)-4-oxo-5-(6-phenoxypyridin-3-yl)-4,5-dihydro-3H-1-thia-3,5,8-triazaacenaphthylene-2-carboxamide], the “BTK_I_binding pIC50” value stood at 6.00.

For `CC(C)c1cc(N2C(=O)Nc3c(C(=O)N[C@@H]4CCC[C@@H]4N)sc4nccc2c34)ccn1` [Example 270, N-((1R,2S)-2-Aminocyclopentyl)-5-(2-isopropylpyridin-4-yl)-4-oxo-4,5-dihydro-3H-1-thia-3,5,8-triazaacenaphthylene-2-carboxamide], the IC50 was more than 1000 nM. Regarding `CC(C)Oc1ccc(N2C(=O)Nc3c(C(=O)N[C@@H]4CCC[C@@H]4N)sc4nccc2c34)cc1` [Example 271, N-((1R,2S)-2-Aminocyclopentyl)-5-(4-isopropoxyphenyl)-4-oxo-4,5-dihydro-3H-1-thia-3,5,8-triazaacenaphthylene-2-carboxamide], the IC50 is more than 1000 nM.

With `N[C@@H]1CCCC[C@H]1NC(=O)c1sc2nccc3c2c1NC(=O)N3c1ccc(Oc2ccccc2)nc1` [Example 277, N-((1R,2R)-2-Aminocyclohexyl)-4-oxo-5-(6-phenoxypyridin-3-yl)-4,5-dihydro-3H-1-thia-3,5,8-triazaacenaphthylene-2-carboxamide], the IC50 was more than 1000 nM.

Consider `N[C@H]1CCC[C@H]1NC(=O)c1sc2nccc3c2c1NC(=O)N3c1cnnc(-c2ccccc2)c1` [Example 278, N-((1R,2S)-2-Aminocyclopentyl)-4-oxo-5-(6-phenylpyridazin-4-yl)-4,5-dihydro-3H-1-thia-3,5,8-triazaacenaphthylene-2-carboxamide], for which the IC50 was more than 1000 nM.

With `C=CC(=O)N[C@H]1CCC[C@H](NC(=O)c2sc3nccc4c3c2NC(=O)N4c2ccnc(-c3ccccc3)c2)C1` [Example 279, N-((1S,3S)-3-Acrylamidocyclohexyl)-4-oxo-5-(2-phenylpyridin-4-yl)-4,5-dihydro-3H-1-thia-3,5,8-triazaacenaphthylene-2-carboxamide], the IC50 is more than 1000 nM. For the compound `CC(=O)N[C@H]1CCC[C@H]1NC(=O)c1sc2nccc3c2c1NC(=O)N3c1ccnc(-c2ccccc2)c1` [Example 280, N-((1R,2S)-2-Acetamidocyclopentyl)-4-oxo-5-(2-phenylpyridin-4-yl)-4,5-dihydro-3H-1-thia-3,5,8-triazaacenaphthylene-2-carboxamide], the IC50 was more than 1000 nM. The same measure, in the same setting: then `N[C@H]1CCC[C@H]1NC(=O)c1sc2nccc3c2c1NC(=O)N3c1cc(-c2ccccc2)ncn1` [Example 281, N-((1R,2S)-2-Aminocyclopentyl)-4-oxo-5-(6-phenylpyrimidin-4-yl)-4,5-dihydro-3H-1-thia-3,5,8-triazaacenaphthylene-2-carboxamide], with more than 1000 nM; and `C=CC(=O)N[C@H]1CC[C@H](NC(=O)c2sc3nccc4c3c2NC(=O)N4c2ccnc(-c3ccccc3)c2)C1` [Example 282, N-((1S,3S)-3-Acrylamidocyclopentyl)-4-oxo-5-(2-phenylpyridin-4-yl)-4,5-dihydro-3H-1-thia-3,5,8-triazaacenaphthylene-2-carboxamide], with more than 1000 nM. Regarding `C=CC(=O)N[C@H]1CCC[C@@H](NC(=O)c2sc3nccc4c3c2NC(=O)N4c2ccnc(-c3ccccc3)c2)C1` [Example 283, N-((1R,3S)-3-Acrylamidocyclohexyl)-4-oxo-5-(2-phenylpyridin-4-yl)-4,5-dihydro-3H-1-thia-3,5,8-triazaacenaphthylene-2-carboxamide], the IC50 was more than 1000 nM.

Regarding `N[C@H]1CCC[C@H]1NC(=O)c1sc2nccc3c2c1NC(=O)N3c1cncc(-c2ccccc2)c1` [Example 284, N-((1R,2S)-2-Aminocyclopentyl)-4-oxo-5-(5-phenylpyridin-3-yl)-4,5-dihydro-3H-1-thia-3,5,8-triazaacenaphthylene-2-carboxamide], the IC50 was more than 1000 nM.

Turning to `N[C@H]1CCC[C@H]1NC(=O)c1sc2nccc3c2c1NC(=O)N3c1cccc(-c2ccccn2)c1` [Example 285, N-((1R,2S)-2-Aminocyclopentyl)-4-oxo-5-(3-(pyridin-2-yl)phenyl)-4,5-dihydro-3H-1-thia-3,5,8-triazaacenaphthylene-2-carboxamide], the IC50 was more than 1000 nM.
